Literature values, collected in US20160199460A1, “COMPOSITIONS FOR REDUCING THE DELETERIOUS EFFECTS OF STRESS AND AGING” (HydroPep, LLC, priority 2010, published 2016).

Test system: aging individuals (>50 years of age)
Conditions: oral D-ribose; aging individuals (>50 years of age) with tiredness for at least one month

For O=C[C@H](O)[C@H](O)[C@H](O)CO [D-ribose], the “Physical fatigue and mental outlook” value is given as “lessening physical fatigue”.
